US9409983B2, “Methods and compositions involving PBEF inhibitors for lung inflammation conditions and diseases” (The Board of Trustess of the University of Illinois, priority 2009, dated 2016)

What was measured:
human PBEF [1] = settings: as reported in Ye et al. 2005; cited from earlier work
human PBEF [2] = test: In vitro PBEF silencing with siRNAs; assay type: cell-based
Description: In vitro human PBEF stealth siRNAs were designed based on the human PBEF cDNA reference sequence (NM_005746.1) using the BLOCK-iTi RNAi Designer (Invitrogen, Carlsbad, Calif.). The siRNA sequence 1 (as reported in Ye et al. 2005 MVR w/@75% silencing) was custom synthesized from Invitrogen (cat#10620312_40993403, NM_005746); (5′-[…]-3′ SEQ ID NO:4) and scrambled controls (cat#10620312_40993404).
Alternatively, small interfering RNA (siRNA) targeting human PBEF1 (NM_005746) was purchased as 4 ON-TARGETplus SMARTpool siRNA duplexes (catalog#L-004581-00) from Dharmacon (Lafayette, Colo.).

[3] = system: rat peritoneal neutrophils; test: Transmigration and chemotaxis assay (Transwell); assay type: cell-based; settings: rhPBEF (10 ng/ul) or casein in lower chamber, up to 4 hours
Method: Chemotaxis of rat peritoneal neutrophils (calcein-AM) across 3 μm polycarbonate filters was assessed in response to recombinant human PBEF/visfatin (rhPBEF, PeproTech, Rocky Hill, N.J.), or casein (positive control). (See Supplemental Methods for additional details).
Neutrophils were collected from retired breeder male Harlan-Sprague Dawley rats by intraperitoneal injection of 2.5% casein (5 ml). The resulting peritoneal fluid was recovered by PBS peritoneal lavage after 18 hr, centrifuged and examined for total cell counts and cell differentiation. For chemotaxis assays, leukocytes were exposed to calcein-AM in the presence of plurionic acid for 1 hr at room temperature. The temperature was then elevated to 37° C. for 30 min to cleave the calcein AM thereby reducing the rate of calcein diffusion out of the cells. […] The receiving wells were assessed serially in a fluorescent plate reader with absorption at 494 nm and emission measured at 517 nm. Fluorescence was recorded at 5, 10, 15, 30 min and each subsequent 30 min period for up to 4 hr. Aliquots of known numbers of neutrophils were counted in separate wells at each time point to account for any quenching of the fluorescence over time.

RENCA cells = settings: cited from earlier work

Invitrogen siRNA: human PBEF stealth siRNA, single sequence, custom synthesized from Invitrogen; 5′-CCACCCAACACAAGCAAAGUUUAUU-3′ SEQ ID NO:4 (Stealth siRNA from Invitrogen, modification pattern not given here)
PBEF silencing (human PBEF [1]): 75% | downregulating PBEF protein expression (human PBEF [2]): effective

casein [reference compound]
PMN migration across Transwell filters [3]: significant at all time points beginning at 30 minutes

O=C(/C=C/c1cccnc1)NCCCCC1CCN(C(=O)c2ccccc2)CC1 [FK-866]
toxicity compared with TNP-470 treatment (RENCA cells; doses of up to 6 mg/kg FK-866, TNP 470 30 mg/kg subcutaneously every other day): less toxic than treatment with TNP-470 | doses with significant antitumor efficacy (RENCA cells; oral, twice daily, days 14 to 19 after tumor cell inoculation): ≥ 10 mg/kg
